Test results published in ChEMBL document CHEMBL1201862, “PubChem BioAssay data set” (2004).
Active and inactive are the calls of the source.

Legend:
[1] = general cell-killing toxicity readout – plate reader, dry powder samples, cytotoxicity control for PAX8 inhibitor project, dose response (AID 743021); assay type: functional, cell-based
[2] = target: Glucose-6-phosphate 1-dehydrogenase (Homo sapiens, UniProt P11413); experiment: inhibition of Homo sapiens G6PD, dose series – biochemical, fluorescence, selectivity assay for P. falciparum G6PD inhibitor project, dose response (AID 504792); assay type: functional
Glucose-6-phosphate 1-dehydrogenase, sequence (P11413 whole entry): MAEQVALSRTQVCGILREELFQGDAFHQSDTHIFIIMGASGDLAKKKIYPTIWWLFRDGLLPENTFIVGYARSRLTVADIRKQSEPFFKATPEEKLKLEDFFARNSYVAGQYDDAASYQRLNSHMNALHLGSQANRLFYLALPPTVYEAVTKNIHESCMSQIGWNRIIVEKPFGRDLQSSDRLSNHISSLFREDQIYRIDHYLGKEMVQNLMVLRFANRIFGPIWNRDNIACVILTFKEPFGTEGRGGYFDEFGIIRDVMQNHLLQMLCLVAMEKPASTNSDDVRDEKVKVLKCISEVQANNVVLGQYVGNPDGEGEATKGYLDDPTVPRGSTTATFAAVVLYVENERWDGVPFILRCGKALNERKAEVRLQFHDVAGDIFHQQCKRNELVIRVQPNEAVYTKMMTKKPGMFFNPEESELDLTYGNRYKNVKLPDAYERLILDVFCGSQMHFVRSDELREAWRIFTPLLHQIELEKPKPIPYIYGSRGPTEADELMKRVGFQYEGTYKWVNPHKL

HEK293 = experiment: EBV LMP1 TES2 canonical NF-kB signalling blockers – cell-based, HEK293, luciferase, cherry-pick, dose response (AID 588343); assay type: functional; conditions: Homo sapiens
[3] = DRD fibroblast viability loss – cell-based, non-viral oncogenic, luminescence, dose response (AID 1934); assay type: functional; conditions: Homo sapiens
Paired box protein Pax-8 = Paired box protein Pax-8 (Homo sapiens, UniProt Q06710); experiment: PAX8 transcriptional activity inhibition in RMG-I – RMG-I cells, luciferase, cherry-pick, dose response (AID 687027); assay type: functional, cell-based;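 further: luciferase reporter driven by Pax8 target thyroperoxidase promoter measured by SteadyGlo luminescence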
Paired box protein Pax-8, sequence (Q06710 whole entry): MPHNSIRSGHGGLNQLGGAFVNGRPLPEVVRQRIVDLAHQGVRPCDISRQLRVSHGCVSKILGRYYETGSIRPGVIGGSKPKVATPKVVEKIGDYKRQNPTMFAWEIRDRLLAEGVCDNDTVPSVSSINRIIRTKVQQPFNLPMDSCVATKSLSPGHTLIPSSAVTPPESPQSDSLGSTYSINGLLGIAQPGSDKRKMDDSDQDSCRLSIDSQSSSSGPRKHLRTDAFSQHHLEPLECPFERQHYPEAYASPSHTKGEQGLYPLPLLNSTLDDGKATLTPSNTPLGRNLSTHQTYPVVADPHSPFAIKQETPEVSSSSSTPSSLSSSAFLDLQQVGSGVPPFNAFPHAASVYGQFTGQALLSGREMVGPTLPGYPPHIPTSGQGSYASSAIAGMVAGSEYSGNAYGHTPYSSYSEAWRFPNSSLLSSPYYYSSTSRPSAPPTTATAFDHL

CAAX prenyl protease 2 = CAAX prenyl protease 2 (Homo sapiens, UniProt Q9Y256); experiment: inhibition of Ras-converting CAAX protease Rce1 – biochemical, yeast membranes, quenched-peptide fluorescence, cherry-pick, dose response (AID 588849)
CAAX prenyl protease 2, sequence (Q9Y256 whole entry): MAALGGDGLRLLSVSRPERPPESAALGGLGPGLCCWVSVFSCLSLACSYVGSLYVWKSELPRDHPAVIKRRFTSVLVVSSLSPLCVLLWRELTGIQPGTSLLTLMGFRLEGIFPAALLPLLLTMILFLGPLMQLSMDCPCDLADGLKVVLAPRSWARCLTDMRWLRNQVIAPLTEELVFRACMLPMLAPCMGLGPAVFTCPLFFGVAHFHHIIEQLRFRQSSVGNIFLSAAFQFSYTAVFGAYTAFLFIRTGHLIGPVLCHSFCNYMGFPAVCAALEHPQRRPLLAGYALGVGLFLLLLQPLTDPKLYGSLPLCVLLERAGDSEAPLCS

[4] = target: Luciferin 4-monooxygenase (Photinus pyralis, UniProt P08659); experiment: inhibition of purified Photinus pyralis luciferase – biochemical, luminescence, dose response (AID 1891)
Luciferin 4-monooxygenase, sequence (P08659 whole entry): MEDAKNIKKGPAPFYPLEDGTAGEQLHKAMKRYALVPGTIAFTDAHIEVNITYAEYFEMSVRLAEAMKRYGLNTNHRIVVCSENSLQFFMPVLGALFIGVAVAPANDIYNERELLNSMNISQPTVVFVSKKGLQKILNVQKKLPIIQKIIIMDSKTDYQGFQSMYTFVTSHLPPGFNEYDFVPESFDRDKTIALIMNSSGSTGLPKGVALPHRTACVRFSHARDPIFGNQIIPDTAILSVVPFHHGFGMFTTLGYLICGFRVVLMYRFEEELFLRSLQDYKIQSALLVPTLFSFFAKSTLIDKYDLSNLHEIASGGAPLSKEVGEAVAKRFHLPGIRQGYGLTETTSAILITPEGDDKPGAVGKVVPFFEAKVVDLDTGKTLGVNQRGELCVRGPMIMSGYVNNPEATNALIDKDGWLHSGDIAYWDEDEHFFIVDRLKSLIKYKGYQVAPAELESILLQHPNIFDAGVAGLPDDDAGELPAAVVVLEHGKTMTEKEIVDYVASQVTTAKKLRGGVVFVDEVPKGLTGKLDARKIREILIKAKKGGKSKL

[5] = ADP-Glo luciferase signal interference – biochemical, luminescence, cherry-picked samples, set 2, artefact control for CDK5 inhibitor project, dose response (AID 504546); assay type: functional, cell-based
BJ [6] = experiment: cells; assay type: functional, cell-based; conditions: Homo sapiens
[7] = target: Cyclin-dependent kinase 5/CDK5 activator 1 (Homo sapiens, UniProt Q00535); experiment: blockade of human CDK5 activity – biochemical, cherry-picked samples, set 2, dose response (AID 504545)
Cyclin-dependent kinase 5/CDK5 activator 1, sequence (Q00535 whole entry): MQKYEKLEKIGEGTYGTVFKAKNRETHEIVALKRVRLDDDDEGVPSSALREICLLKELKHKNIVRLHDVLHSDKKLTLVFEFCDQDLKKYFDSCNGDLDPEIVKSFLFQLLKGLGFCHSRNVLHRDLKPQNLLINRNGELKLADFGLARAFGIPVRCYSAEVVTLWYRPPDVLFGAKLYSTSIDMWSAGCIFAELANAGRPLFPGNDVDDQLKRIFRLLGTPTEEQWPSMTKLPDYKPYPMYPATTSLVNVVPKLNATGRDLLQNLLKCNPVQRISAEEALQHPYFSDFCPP
Cyclin-dependent kinase 5/CDK5 activator 1, sequence (Q15078 whole entry, further chain): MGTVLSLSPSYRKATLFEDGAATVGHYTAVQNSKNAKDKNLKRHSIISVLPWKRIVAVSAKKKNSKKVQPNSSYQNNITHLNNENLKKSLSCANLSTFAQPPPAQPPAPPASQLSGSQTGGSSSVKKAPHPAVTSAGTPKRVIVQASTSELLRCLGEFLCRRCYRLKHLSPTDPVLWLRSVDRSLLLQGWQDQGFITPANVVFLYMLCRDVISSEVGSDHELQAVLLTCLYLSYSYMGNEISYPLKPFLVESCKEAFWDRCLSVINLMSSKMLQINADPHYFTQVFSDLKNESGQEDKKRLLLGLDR

BJ [8] = experiment: BJ-TERT-LT-ST fibroblast viability loss – cell-based, RAS-independent, luminescence, dose response (AID 1935); assay type: functional; conditions: Homo sapiens;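 further: BJ fibroblasts immortalized with TERT plus LT and ST oncogenes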
[9] = Luminescence Cell-Based Dose Confirmation HTS to Identify Inhibitors of Platelet Dense Granule Release. [Related pubchem assays: 1663 (Primary HTS), 1678 (Summary of Project)]; assay type: functional
INS1 = experiment: INS-1E survival protection against cytokine death – cell-based, luminescence, retest, dose response (AID 449756); assay type: functional; conditions: Rattus norvegicus;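 further: cell death triggered by IL-1 beta plus TNF-alpha plus IFN-gamma mixture; protective hits raise ATP signal compared with cytokine alone wells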
BJ [10] = experiment: BJ-TERT fibroblast viability loss – cell-based, RAS-independent, luminescence, dose response (AID 1933); assay type: functional; conditions: Homo sapiens
Procathepsin L = Procathepsin L (Homo sapiens, UniProt P07711)
Procathepsin L, sequence (P07711 whole entry): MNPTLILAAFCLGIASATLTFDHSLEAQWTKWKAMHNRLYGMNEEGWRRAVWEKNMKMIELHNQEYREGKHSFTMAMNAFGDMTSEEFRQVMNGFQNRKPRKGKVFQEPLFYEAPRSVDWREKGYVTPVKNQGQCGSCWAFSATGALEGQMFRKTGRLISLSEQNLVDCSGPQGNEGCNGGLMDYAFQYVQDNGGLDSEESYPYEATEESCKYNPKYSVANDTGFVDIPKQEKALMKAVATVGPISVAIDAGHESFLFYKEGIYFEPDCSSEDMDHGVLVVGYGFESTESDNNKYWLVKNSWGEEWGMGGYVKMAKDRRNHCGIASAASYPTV

Aspartyl aminopeptidase = target: T1, Aspartyl aminopeptidase (Plasmodium falciparum 3D7, UniProt Q8I2J3)
T1 sequence (Q8I2J3 whole entry): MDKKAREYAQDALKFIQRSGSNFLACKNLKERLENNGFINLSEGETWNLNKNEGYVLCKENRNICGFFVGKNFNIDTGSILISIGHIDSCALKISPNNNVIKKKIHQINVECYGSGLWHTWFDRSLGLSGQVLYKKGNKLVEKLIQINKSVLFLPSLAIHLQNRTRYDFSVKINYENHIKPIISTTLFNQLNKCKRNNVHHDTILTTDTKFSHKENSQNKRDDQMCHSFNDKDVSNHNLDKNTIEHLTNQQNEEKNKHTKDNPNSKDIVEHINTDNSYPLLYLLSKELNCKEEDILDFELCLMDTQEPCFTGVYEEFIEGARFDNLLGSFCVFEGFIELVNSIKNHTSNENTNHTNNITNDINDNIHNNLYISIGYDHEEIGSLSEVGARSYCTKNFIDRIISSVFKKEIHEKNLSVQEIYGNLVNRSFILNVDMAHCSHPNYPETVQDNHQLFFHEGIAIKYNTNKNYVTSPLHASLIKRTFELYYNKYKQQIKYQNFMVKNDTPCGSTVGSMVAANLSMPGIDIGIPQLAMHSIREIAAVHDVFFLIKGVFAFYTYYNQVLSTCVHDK

Aminopeptidase N = Aminopeptidase N (Plasmodium falciparum FcB1/Columbia, UniProt O96935); experiment: malaria alanyl aminopeptidase activity blockers – biochemical, fluorogenic H-Leu-NHMec substrate, 1536-well (AID 1445); design: species or system Plasmodium falciparum 3D7, 3D7
[11] = target: T2, Long-chain-fatty-acid--AMP ligase FadD28 (Mycobacterium tuberculosis, UniProt P9WQ59); experiment: Fluorescence polarization aasay to screen for inhibitors that compete for the binding of FadD28 to a bisubstrate Measured in Biochemical System Using Plate Reader - 2147-01_Inhibitor_Dose_CherryPick_Activity.; assay type: functional, Mycobacterium tuberculosis H37Rv
T2 sequence (P9WQ59 whole entry): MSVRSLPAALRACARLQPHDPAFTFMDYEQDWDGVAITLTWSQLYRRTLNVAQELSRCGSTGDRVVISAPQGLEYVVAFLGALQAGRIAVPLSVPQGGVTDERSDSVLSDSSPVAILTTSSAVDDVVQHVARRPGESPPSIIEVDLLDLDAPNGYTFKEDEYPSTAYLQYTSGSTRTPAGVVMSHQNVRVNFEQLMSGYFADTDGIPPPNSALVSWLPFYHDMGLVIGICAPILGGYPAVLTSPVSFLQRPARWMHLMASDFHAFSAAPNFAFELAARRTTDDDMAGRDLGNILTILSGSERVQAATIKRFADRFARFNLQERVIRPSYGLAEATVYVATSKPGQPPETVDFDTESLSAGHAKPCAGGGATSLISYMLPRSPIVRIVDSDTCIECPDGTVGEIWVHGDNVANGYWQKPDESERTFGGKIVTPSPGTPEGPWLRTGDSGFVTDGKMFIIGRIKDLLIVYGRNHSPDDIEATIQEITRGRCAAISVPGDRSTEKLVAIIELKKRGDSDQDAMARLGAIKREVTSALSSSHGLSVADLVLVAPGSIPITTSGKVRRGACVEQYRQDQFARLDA

Streptokinase A = target: T3, Streptokinase A (Streptococcus pyogenes serotype M1, UniProt P10520); experiment: viability-normalized secreted streptokinase activity reduction – plasminogen activation absorbance, OD405, dose response (AID 1914); assay type: functional, Streptococcus pyogenes M1 GAS;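 further: secreted streptokinase activity via plasminogen activation per viability signal from cell pellet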
T3 sequence (P10520 whole entry): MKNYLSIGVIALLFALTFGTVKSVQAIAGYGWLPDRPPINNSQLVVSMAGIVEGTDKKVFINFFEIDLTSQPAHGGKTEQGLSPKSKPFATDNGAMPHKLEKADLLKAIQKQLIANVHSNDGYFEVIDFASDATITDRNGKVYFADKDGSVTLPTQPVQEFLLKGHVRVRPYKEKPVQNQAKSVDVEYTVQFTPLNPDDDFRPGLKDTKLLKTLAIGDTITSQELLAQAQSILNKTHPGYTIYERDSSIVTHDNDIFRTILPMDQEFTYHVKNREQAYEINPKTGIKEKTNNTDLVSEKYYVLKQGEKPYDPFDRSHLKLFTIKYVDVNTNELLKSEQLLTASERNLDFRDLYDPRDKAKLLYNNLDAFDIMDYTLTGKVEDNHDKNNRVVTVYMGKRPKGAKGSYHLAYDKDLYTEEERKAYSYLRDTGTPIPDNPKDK

Streptococcus [12] = experiment: Luminescence Microorganism-Based Dose Response Follow up to Identify Compounds Cytotoxic to Streptococcus. [Related pubchem assays: 1677 (Project Summary), 1915, 1914, 1902 (Retest at Dose), 1900 (Counter Screen), 1662 (Primary HTS)]; assay type: functional, organism-based
[13] = system: Streptococcus sp. 'group A'; experiment: Streptococcus pyogenes SK(-)GAS viability under kanamycin – luminescence, BacTiterGlo, confirmation, counter-screen for streptokinase expression inhibitor project, dose response (AID 1900); assay type: functional, organism-based
Streptococcus [14] = experiment: GAS UMAA2166 growth inhibition – luminescence, BacTiterGlo, counter-screen for streptokinase expression inhibitor project, dose response (AID 1915); assay type: functional, organism-based;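 further: potency for reduction of bacterial viability or growth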
Beta-galactosidase = Beta-galactosidase (Escherichia coli, UniProt Q8VNN2); experiment: detection-enzyme interference by beta-gal modulators – biochemical, E. coli enzyme, set 3, artefact control for CCR6 antagonist project, dose response (AID 504712); assay type: functional
Beta-galactosidase, sequence (Q8VNN2 whole entry): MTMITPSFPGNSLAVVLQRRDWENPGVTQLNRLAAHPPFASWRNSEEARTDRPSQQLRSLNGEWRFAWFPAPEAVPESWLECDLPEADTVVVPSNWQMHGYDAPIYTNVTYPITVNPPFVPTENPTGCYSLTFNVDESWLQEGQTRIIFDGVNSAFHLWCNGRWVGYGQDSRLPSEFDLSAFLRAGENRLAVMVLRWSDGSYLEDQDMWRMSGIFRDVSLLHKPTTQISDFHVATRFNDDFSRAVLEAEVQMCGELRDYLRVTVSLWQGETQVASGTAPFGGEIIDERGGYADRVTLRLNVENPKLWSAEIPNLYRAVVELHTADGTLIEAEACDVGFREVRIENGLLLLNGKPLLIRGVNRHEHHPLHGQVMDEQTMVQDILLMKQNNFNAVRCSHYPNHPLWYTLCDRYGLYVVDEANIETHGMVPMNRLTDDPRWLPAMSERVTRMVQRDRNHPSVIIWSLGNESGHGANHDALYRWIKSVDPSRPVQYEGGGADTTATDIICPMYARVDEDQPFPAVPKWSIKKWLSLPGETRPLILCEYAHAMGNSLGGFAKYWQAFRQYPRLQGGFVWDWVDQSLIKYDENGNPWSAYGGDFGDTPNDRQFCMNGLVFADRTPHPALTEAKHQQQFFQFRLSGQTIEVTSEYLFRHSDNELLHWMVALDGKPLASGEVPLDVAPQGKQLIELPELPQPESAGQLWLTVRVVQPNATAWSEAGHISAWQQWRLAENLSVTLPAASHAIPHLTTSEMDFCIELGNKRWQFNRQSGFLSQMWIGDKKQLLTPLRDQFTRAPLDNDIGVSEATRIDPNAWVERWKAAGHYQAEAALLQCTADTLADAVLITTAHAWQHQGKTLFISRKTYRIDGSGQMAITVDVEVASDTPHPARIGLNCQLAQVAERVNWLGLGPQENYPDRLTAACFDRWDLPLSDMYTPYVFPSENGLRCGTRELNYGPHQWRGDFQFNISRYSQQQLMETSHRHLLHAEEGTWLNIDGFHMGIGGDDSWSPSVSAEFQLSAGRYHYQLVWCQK

[15] = target: Transitional endoplasmic reticulum ATPase (Homo sapiens, UniProt P55072, C522A); experiment: C522A mutant p97 ATPase inhibitors, dose response, counter-screen for p97 inhibitor project, biochemical, luminescence (AID 1544)
[16] = target: Induced myeloid leukemia cell differentiation protein Mcl-1 (Homo sapiens, UniProt Q07820); assay type: functional
Induced myeloid leukemia cell differentiation protein Mcl-1, sequence (Q07820 whole entry): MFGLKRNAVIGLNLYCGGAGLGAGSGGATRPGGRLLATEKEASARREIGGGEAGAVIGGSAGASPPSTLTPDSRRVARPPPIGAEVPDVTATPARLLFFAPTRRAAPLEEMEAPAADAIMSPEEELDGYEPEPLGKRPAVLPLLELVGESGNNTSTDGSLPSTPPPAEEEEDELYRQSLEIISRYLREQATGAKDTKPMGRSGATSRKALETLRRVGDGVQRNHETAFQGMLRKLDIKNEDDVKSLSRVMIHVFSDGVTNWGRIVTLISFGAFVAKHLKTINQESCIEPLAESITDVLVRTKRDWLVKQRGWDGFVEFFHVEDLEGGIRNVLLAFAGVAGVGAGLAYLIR

[17] = target: Transitional endoplasmic reticulum ATPase (Homo sapiens, UniProt P55072); experiment: p97 ATPase inhibitors, dose response, biochemical (AID 1534)
Transitional endoplasmic reticulum ATPase (Homo sapiens, UniProt P55072), sequence (P55072 whole entry): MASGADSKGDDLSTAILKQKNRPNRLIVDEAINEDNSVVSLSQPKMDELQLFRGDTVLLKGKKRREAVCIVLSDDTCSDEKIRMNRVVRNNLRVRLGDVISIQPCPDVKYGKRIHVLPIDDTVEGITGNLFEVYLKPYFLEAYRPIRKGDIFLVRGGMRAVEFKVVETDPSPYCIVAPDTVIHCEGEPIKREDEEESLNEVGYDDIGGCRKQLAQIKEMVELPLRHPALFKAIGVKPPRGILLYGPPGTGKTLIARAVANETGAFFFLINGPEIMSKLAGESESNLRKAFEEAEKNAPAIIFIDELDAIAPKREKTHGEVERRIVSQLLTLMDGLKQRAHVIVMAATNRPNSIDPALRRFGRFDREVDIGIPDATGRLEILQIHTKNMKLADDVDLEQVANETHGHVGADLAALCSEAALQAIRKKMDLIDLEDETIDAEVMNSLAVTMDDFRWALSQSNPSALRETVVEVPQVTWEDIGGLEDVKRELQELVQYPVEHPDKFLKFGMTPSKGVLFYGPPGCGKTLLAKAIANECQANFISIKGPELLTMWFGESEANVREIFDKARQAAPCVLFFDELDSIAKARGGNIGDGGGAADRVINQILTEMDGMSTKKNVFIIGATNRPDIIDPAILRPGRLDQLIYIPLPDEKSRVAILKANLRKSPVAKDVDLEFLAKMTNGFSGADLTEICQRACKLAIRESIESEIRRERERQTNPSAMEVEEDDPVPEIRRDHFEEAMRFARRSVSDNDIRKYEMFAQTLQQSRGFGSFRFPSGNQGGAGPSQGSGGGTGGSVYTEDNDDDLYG

COc1ccc(/C=C/c2nc3ccccc3n2C)cc1
AC50 [1]: 5.95 µM (active) | IC50 [2]: > 80 µM (inactive) | AC50 (HEK293): 0.997 µM (active) | EC50 [3]: 7.64 µM (active) | AC50 (Paired box protein Pax-8): 6.69 µM (active) | AC50 (CAAX prenyl protease 2): 7.09 µM (active) | EC50 [4]: 0.747 µM (active) | AC50 [5]: 27 µM (active) | EC50 (BJ [6]): 7.64 µM (active) | AC50 [7]: 16.4 µM (active) | EC50 (BJ [8]): > 150 µM (inconclusive) | EC50 [9]: 1.01 µM (active) | AC50 (INS1): 4.95 µM (active) | EC50 (BJ [10]): 9.33 µM (active)

Cc1ccc(N2C(=O)/C(=C\Nn3cnnc3)c3ccccc3C2=O)cc1
IC50 (Procathepsin L): > 59.6 µM (not active) | IC50 (Aspartyl aminopeptidase): 1.95 µM (active)

NS(=O)(=O)c1ccc(Nc2nc3ccccc3nc2NS(=O)(=O)c2cccc([N+](=O)[O-])c2)cc1
IC50 (Aminopeptidase N): 42.9 µM (active) | AC50 [11]: 53 µM (active)

Clc1cccc(Cl)c1CSc1nnc(/C=C/c2ccccc2)o1
EC50 (Streptokinase A): 4.01 µM (active) | EC50 (Streptococcus [12]): > 500 µM (not active) | EC50 [13]: 28.8 µM (active) | EC50 (Streptococcus [14]): > 150 µM (not active)

O=C1NC(=S)S/C1=C\c1c(-c2ccccc2)[nH]c2ccccc12
IC50 (Beta-galactosidase): > 66.6 µM (inactive) | IC50 [15]: > 50 µM (not active) | IC50 [16]: 4.97 µM (active) | IC50 [17]: > 50 µM (not active)
